Measurements from patent US7078400B2, “20-HETE synthase inhibitor” (Taisho Pharmaceutical Co., Ltd., priority 1999, dated 2006).

Legend:
[1] = system: 20-HETE synthase originated from rat kidney microsome; experiment: Inhibitory effect of 20-HETE synthase originated from rat kidney microsome; type: biochemical; settings: for Inhibition rate (1 μM): 20-HETE production without compound set to 100%
Summary of the method: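 Kidney microsomes from 6-week male spontaneously hypertensive rats were used with tritium-arachidonic acid and NADPH. 20-HETE was quantified by radio-HPLC on a C18 column.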

[2] = 1 μM of subject compound, rat kidney microsome
[3] = concentration at which 20-HETE production was inhibited to 50%, rat kidney microsome
[4] = concentration at which production of 20-HETE was inhibited to 50%

| SMILES | melting point [°C] | IC50 [1, 3] [nM] | IC50 [1, 4] [nM] | Inhibition rate (1 μM) [1, 2] | Inhibition rate (1 μM) ([1]; 1 μM of the subject compound) |
| --- | --- | --- | --- | --- | --- |
| CC#CCCOc1ccc(N/C=N/O)cc1 [Comp. 337] | 135 to 136.5 | 2.1 | – | 119.4 | – |
| CC/C=C/COc1ccc(N/C=N/O)cc1 [Comp. 338] | 100 to 102 | 0.9 | – | 119.8 | – |
| O/N=C/Nc1ccc(OCCN2CCCC2)cc1 [Comp. 339] | 113.5 to 114.5 | 124 | – | 88 | – |
| O/N=C/Nc1ccc(OCC2COCO2)cc1 (stereo not drawn) [Comp. 340] | 157.5 to 158 | 3 | – | 97.4 | – |
| O/N=C/Nc1ccc(OCCC2CCCCC2)cc1 [Comp. 341] | 129.5 to 133 | 1.2 | – | 104 | – |
| O/N=C/Nc1ccc(OCc2ccc3ccccc3n2)cc1 [Comp. 342] | 174.5 to 175.5 | 5.3 | – | 98.5 | – |
| O/N=C/Nc1ccc(OCc2ccccc2)cc1 [Comp. 343] | 166.5 to 167 | 3.3 | – | 84.5 | – |
| O/N=C/Nc1ccc(OCc2ccncc2)cc1 [Comp. 344] | 180 to 180.5 | 37.5 | – | 107 | – |
| O/N=C/Nc1ccc(OCc2ccccn2)cc1 [Comp. 345, N-[4-(pyridin-2-ylmethoxy)phenyl]-N′-hydroxyformamidine] | 159.5 to 161 | 37.5 | – | 107 | – |
| COCCOc1ccc(N/C=N/O)cc1 [Comp. 346] | 104 to 107 | 8.9 | – | 106.2 | – |
| COCCOCCOc1ccc(N/C=N/O)cc1 [Comp. 347] | 80.5 to 81.5 | 3.7 | – | 105 | – |
| CC1(C)OCC(COc2ccc(N/C=N/O)cc2)O1 (stereo not drawn) [Comp. 348] | 128.5 to 129.5 | 3.4 | – | 103 | – |
| O/N=C/Nc1ccc(OCCCc2ccccc2)cc1 [Comp. 349] | 152.5 to 153 | 1.6 | – | 100 | – |
| O/N=C/Nc1ccc(OCc2cccs2)cc1 [Comp. 350] | 168 to 168.5 | 1.4 | – | 91 | – |
| O/N=C/Nc1ccc(OCc2ccco2)cc1 [Comp. 352] | 158.5 to 159.5 | 4.6 | – | 97 | – |
| Cc1ncsc1CCOc1ccc(N/C=N/O)cc1 [Comp. 353] | 158 to 160 | 3.7 | – | 105 | – |

| SMILES | melting point [°C] | IC50 [1, 3] [nM] | IC50 [1, 4] [nM] | Inhibition rate (1 μM) [1, 2] | Inhibition rate (1 μM) ([1]; 1 μM of the subject compound) |
| --- | --- | --- | --- | --- | --- |
| CC(C)OCCOc1ccc(N/C=N/O)cc1 [Comp. 354] | 113 to 114 | 3 | – | 106 | – |
| O/N=C/Nc1ccc(OCCN2CCOCC2)cc1 [Comp. 355] | 141 to 142 | 5.9 | – | 107 | – |
| O/N=C/Nc1ccc(OCC2CC2)cc1 [Comp. 356] | 141 to 142.5 | 2.6 | – | 102 | – |
| O/N=C/Nc1ccc(OCCCc2ccccn2)cc1 [Comp. 358] | 138 to 139.5 | 3.1 | – | 103 | – |
| O/N=C/Nc1ccc(OCCSc2ccccn2)cc1 [Comp. 359] | 132.5 to 134.5 | 1.4 | – | 102 | – |
| CCSCCOc1ccc(N/C=N/O)cc1 [Comp. 361] | 104 to 106 | 2.1 | – | 106 | – |
| O/N=C/Nc1ccc(OCc2cccnc2)cc1 [Comp. 362] | 156 to 157 | 2.1 | – | 106 | – |
| O/N=C/Nc1ccc(OCCCc2cccnc2)cc1 [Comp. 363] | 154 to 155 | 0.78 | – | 105 | – |
| CC1(C)COC(CCOc2ccc(N/C=N/O)cc2)OC1 [Comp. 364] | 136.5 to 137.5 | 2 | – | 104 | – |
| O/N=C/Nc1ccc(OCCCOc2ccccc2)cc1 [Comp. 365] | 143.5 to 145 | 1.4 | – | 105 | – |
| O/N=C/Nc1ccc(OCCCc2ccncc2)cc1 [Comp. 366] | 188 to 189 | 1.2 | – | 105 | – |
| O/N=C/Nc1ccc(OCc2ccsc2)cc1 [Comp. 367] | 165 to 166 | 2.1 | – | 103 | – |
| O/N=C/Nc1ccc(OCc2ccoc2)cc1 [Comp. 368] | 165.5 to 166 | 2.5 | – | 96 | – |
| Cc1cccc(COc2ccc(N/C=N/O)cc2)n1 [Comp. 369] | 146.5 to 149 | 3.1 | – | 105 | – |
| CCOCCCOc1ccc(N/C=N/O)cc1 [Comp. 371] | 93 to 94 | 0.9 | – | 110.4 | – |

Further lines, with some results ahead:

| melting point [°C] | IC50 [1, 3] [nM] | IC50 [1, 4] [nM] | SMILES | Inhibition rate (1 μM) [1, 2] | Inhibition rate (1 μM) ([1]; 1 μM of the subject compound) |
| --- | --- | --- | --- | --- | --- |
| 97 to 99 | 0.8 | – | CCCCOCCOc1ccc(N/C=N/O)cc1 [Comp. 373] | 115.3 | – |
| 153 to 153.5 | 3.1 | – | COc1ccccc1COc1ccc(N/C=N/O)cc1 [Comp. 382] | 122.5 | – |
| 167 to 167.5 | 2.8 | – | O/N=C/Nc1ccc(OCc2cc(F)ccc2F)cc1 [Comp. 384] | 117.3 | – |
| 163 to 164 | 0.9 | – | CSc1ccc(COc2ccc(N/C=N/O)cc2)cc1 [Comp. 387] | 97.8 | – |
| 167 to 167.5 | 1.6 | – | COc1ccc(COc2ccc(N/C=N/O)cc2)cc1 [Comp. 389] | 105.5 | – |
| 152.5 to 153.5 | 2.7 | – | COc1cccc(COc2ccc(N/C=N/O)cc2)c1 [Comp. 390] | 112.8 | – |
| 161.5 to 162 | 2.4 | – | Cc1cccc(COc2ccc(N/C=N/O)cc2)c1 [Comp. 391] | 113.4 | – |
| 165.5 to 166 | 2.4 | – | O/N=C/Nc1ccc(OCc2ccc(F)cc2)cc1 [Comp. 392] | 109.6 | – |
| 143 to 146 | 1.1 | – | N#Cc1cccc(COc2ccc(N/C=N/O)cc2)c1 [Comp. 393] | 124.3 | – |
| 144 to 145 | 3.9 | – | COc1cccc(COc2ccc(N/C=N/O)cc2)c1OC [Comp. 394] | 119.9 | – |
| 178 to 178.5 | 2.1 | – | COc1ccc(COc2ccc(N/C=N/O)cc2)c(OC)c1 [Comp. 395] | 111.6 | – |
| 118 to 120 | – | 98 | CN(C)CCOc1ccc(N/C=N/O)cc1 [Comp. 399] | – | 102.3 |
| 115 to 117 | – | 48.7 | CN(C)CCCOc1ccc(N/C=N/O)cc1 [Comp. 400] | – | 116.9 |
| 100 to 102 | – | 37.6 | CN(C)CCCCOc1ccc(N/C=N/O)cc1 [Comp. 401] | – | 117.4 |
| 95 to 96 | – | 18.7 | CN(C)CCCCCCOc1ccc(N/C=N/O)cc1 [Comp. 402] | – | 118.8 |
| 101.5 to 102 | – | 28.5 | CN(C)CC(C)(C)COc1ccc(N/C=N/O)cc1 [Comp. 403] | – | 118.3 |
| 57.5 to 59 | – | 116 | CN(C)CCOCCOc1ccc(N/C=N/O)cc1 [Comp. 404] | – | 114.9 |
| 127.5 to 129.5 | – | 4.9 | O=C1CCCN1CCOc1ccc(N/C=N/O)cc1 [Comp. 407] | – | 94.3 |
| 177 to 177.5 | – | 4.2 | O=C1CCCN1CCCOc1ccc(N/C=N/O)cc1 [Comp. 408] | – | 103.0 |
| 145 to 146 | – | 6.7 | O/N=C/Nc1ccc(OCC2CCO2)cc1 (stereo not drawn) [Comp. 409] | – | 113.2 |
| 153 to 155 | – | 1 | O/N=C/Nc1ccc(OCC2COc3ccccc3O2)cc1 (stereo not drawn) [Comp. 410] | – | 117.3 |
| 150.5 to 151.5 | – | 3.1 | O/N=C/Nc1ccc(OCCn2cccc2)cc1 [Comp. 411] | – | 122.4 |
| 130 to 130.5 | – | 1.5 | O/N=C/Nc1ccc(OCCCn2cccc2)cc1 [Comp. 412] | – | 119.4 |
| 112 to 113 | – | 2.3 | CSCCOc1ccc(N/C=N/O)cc1 [Comp. 413] | – | 120.2 |
| 132 to 133.5 | – | 1 | CSCCCOc1ccc(N/C=N/O)cc1 [Comp. 414] | – | 113.2 |
| 114 to 117 | – | 17.6 | CN1CCCC(COc2ccc(N/C=N/O)cc2)C1 (stereo not drawn) [Comp. 415] | – | 103.7 |
| 99.5 to 102.5 | – | 16.3 | CN1CCCC1CCOc1ccc(N/C=N/O)cc1 (stereo not drawn) [Comp. 416] | – | 85.8 |
| 146.5 to 148 | – | 90 | CN1CCCCC1COc1ccc(N/C=N/O)cc1 (stereo not drawn) [Comp. 417] | – | 102.8 |
| 147 to 148.5 | – | 8 | O/N=C/Nc1ccc(OCC2CCCO2)cc1 (stereo not drawn) [Comp. 420] | – | 118.6 |
| 153 to 154.5 | – | 3.9 | O/N=C/Nc1ccc(OCC2CCCCO2)cc1 (stereo not drawn) [Comp. 421] | – | 113.3 |
